Results: ChEMBL document CHEMBL4823262, “Discovery of a Vitamin D Receptor-Silent Vitamin D Derivative That Impairs Sterol Regulatory Element-Binding Protein In Vivo” (J Med Chem, 2021)
One block for each compound: values may come before it. Calls of active or inactive are those of the source. The calls are words filed in the database; no cut-off is given here.

Legend:
[1] = target: T1, Vitamin D3 receptor (Homo sapiens, UniProt P11473); assay: Agonist activity at VDR (unknown origin) expressed in CHO-K1 cells at 5 uM by luciferase reporter assay; format: cell-based; settings: cho-k1, 5 µM
T1 sequence (P11473 whole entry): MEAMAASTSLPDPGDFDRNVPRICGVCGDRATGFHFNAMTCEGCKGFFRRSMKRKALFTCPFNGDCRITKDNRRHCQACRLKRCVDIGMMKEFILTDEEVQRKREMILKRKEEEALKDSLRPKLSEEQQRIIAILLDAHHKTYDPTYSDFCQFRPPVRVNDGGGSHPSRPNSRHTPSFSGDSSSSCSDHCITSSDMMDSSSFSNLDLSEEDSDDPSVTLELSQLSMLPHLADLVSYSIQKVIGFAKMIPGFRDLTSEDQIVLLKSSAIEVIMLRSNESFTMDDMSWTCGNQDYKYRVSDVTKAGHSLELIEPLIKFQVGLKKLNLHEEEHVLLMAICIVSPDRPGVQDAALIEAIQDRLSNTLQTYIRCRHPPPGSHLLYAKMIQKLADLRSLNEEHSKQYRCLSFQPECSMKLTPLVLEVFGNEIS

[2] = Effect on serum calcium level in mouse assessed as increase in calcium level at 10 mg/kg, ip administered once daily for 4 days […]; format: ADME, organism-based; settings: in vivo, 96 h, time 4 day
[3] = organism: Mus musculus; settings: Liver, dose 10.0 mg/kg, time 4.0 day
[4] = organism: Mus musculus; settings: Liver, dose 10.0 mg/kg, time 4.0 day; remark: listed apart in the source
[5] = test system: CHO; assay: Cytotoxicity against Chinese hamster CHO cells by beta-galactosidase reporter gene assay; format: cell-based, Cricetulus griseus
[6] = Toxicity in ob/ob mouse assessed as sick at 10 mg/kg, ip administered 5 times per week for 4 weeks; format: organism-based; settings: in vivo, 672 h
[7] = Toxicity in ob/ob mouse assessed as increase in weight at 10 mg/kg, ip administered 5 times per week for 4 weeks; format: organism-based; settings: in vivo, 672 h
[8] = target: T2, Sterol regulatory element-binding protein 1 (Homo sapiens, UniProt P36956); assay: Inhibition of SREBP (unknown origin) expressed in CHO-K1 cells by luciferase reporter assay; format: cell-based
T2 sequence (P36956 whole entry): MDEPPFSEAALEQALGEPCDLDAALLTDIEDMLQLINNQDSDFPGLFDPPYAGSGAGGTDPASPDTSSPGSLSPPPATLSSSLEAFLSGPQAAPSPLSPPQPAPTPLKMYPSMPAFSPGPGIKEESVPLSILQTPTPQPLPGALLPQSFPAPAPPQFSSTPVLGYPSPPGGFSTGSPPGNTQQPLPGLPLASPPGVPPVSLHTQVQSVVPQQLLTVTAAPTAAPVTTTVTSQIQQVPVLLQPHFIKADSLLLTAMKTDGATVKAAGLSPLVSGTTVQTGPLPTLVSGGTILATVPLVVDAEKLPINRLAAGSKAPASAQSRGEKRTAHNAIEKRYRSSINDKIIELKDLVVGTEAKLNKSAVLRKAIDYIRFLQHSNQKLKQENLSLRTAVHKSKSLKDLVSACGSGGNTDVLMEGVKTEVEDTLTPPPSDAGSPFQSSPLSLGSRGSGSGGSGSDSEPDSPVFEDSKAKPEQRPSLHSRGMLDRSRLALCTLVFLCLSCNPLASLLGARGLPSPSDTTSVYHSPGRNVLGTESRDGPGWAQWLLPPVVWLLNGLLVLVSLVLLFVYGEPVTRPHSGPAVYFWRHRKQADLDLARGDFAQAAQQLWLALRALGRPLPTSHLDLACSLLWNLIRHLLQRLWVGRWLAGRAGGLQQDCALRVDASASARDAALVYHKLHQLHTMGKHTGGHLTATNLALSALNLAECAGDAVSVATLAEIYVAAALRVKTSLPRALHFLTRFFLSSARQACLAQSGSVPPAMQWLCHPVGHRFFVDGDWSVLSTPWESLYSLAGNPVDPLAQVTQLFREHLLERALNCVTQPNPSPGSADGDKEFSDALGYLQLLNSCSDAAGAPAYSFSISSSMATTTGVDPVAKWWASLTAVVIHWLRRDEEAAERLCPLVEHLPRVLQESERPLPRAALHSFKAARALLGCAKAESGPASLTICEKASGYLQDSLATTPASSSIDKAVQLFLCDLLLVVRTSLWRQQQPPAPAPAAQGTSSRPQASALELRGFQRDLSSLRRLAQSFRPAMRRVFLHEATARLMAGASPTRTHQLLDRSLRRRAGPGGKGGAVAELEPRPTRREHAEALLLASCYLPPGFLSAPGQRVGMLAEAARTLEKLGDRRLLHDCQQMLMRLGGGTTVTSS

[9] = target: T3, Sterol regulatory element-binding protein cleavage-activating protein (Homo sapiens) (UniProt Q12770); assay: Inhibition of FLAG-tagged SCAP (unknown origin) expressed in CHO-K1 cells assessed as reduction in SCAP protein level at 5 uM after 24 hrs by Western blotting analysis; format: cell-based
T3 sequence (whole entry): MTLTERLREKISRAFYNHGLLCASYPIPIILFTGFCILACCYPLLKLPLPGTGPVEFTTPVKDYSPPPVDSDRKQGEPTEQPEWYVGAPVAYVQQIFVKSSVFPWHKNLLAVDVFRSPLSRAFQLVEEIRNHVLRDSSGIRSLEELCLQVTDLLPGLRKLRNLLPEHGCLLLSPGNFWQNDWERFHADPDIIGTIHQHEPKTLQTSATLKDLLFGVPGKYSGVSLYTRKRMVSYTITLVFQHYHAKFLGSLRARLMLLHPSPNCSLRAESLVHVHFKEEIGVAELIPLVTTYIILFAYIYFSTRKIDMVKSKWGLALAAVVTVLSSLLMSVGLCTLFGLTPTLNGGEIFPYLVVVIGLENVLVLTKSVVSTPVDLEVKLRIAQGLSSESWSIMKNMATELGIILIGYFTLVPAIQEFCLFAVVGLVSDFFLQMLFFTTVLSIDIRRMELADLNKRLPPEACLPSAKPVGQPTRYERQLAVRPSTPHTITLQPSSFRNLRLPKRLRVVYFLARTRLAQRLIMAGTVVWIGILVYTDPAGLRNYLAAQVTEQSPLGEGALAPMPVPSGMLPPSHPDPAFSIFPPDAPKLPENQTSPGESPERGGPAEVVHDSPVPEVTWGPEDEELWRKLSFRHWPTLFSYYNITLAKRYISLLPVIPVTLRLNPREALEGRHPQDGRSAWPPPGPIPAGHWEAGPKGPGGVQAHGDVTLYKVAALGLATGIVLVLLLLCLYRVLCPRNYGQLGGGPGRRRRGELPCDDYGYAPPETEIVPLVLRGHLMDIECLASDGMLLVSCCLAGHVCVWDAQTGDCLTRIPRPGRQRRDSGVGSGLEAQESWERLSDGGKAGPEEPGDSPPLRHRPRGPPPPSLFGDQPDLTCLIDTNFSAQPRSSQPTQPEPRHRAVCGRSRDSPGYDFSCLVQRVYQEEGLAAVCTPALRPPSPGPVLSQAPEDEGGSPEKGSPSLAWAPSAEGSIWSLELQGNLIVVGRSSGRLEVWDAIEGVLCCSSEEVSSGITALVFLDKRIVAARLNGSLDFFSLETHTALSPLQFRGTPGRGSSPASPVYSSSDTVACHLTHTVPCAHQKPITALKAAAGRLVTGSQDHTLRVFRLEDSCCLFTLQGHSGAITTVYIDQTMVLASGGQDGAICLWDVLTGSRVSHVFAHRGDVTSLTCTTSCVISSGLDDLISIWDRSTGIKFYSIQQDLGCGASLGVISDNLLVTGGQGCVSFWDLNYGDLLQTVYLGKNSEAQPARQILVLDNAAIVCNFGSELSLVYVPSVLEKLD

- Activity [1]: Active
Structure (SMILES): C[C@H](CCCC(C)(C)O)[C@H]1CC[C@H]2/C(=C/Cn3ncnn3)CCC[C@]12C

- IC50 [8]: 700 nM
Structure (SMILES): CCCc1cc(-c2nc(-c3ccc(NS(C)(=O)=O)cc3)cs2)ccn1

- Activity [1]: Not Active
Structure (SMILES): C[C@H](CCC(F)(F)C(C)(C)O)[C@H]1CC[C@H]2/C(=C/Cn3cc(-c4ccc(F)cc4)nn3)CCC[C@]12C

- Activity [1]: Not Active
Structure (SMILES): C[C@H](CCCC(O)(C(F)(F)F)C(F)(F)F)[C@H]1CC[C@H]2/C(=C/Cn3cc(-c4ccc(F)cc4)nn3)CCC[C@]12C
- Activity [2]: Toxic
- inhibition [3]: Active
- inhibition [4]: Active

- Activity [1]: Active
Structure (SMILES): C[C@H](CCCC(C)(C)O)[C@H]1CC[C@H]2/C(=C/Cn3cc(-c4ccccn4)nn3)CCC[C@]12C

Second part, the compound before the results:

Structure (SMILES): C[C@H](CCCC(C)(C)O)[C@H]1CC[C@H]2/C(=C/Cn3cc(CCCCO)nn3)CCC[C@]12C
- Activity [1]: Active

Structure (SMILES): C[C@H](CCCC(O)(C(F)(F)F)C(F)(F)F)[C@H]1CC[C@H]2/C(=C/Cn3cc(-c4ccccc4)nn3)CCC[C@]12C
- Activity [2]: Toxic
- inhibition [3]: Active
- inhibition [4]: Active

Structure (SMILES): C[C@H](CCC(F)(F)C(C)(C)O)[C@H]1CC[C@H]2/C(=C/Cn3nnnc3-c3ccc(F)cc3)CCC[C@]12C
- Activity [1]: Not Active
- Activity [5]: Non-Toxic

Structure (SMILES): C[C@H](CCC(F)(F)C(C)(C)O)[C@H]1CC[C@H]2/C(=C/Cn3nnnc3-c3ccccc3)CCC[C@]12C
- Activity [5]: Non-Toxic
- Activity [6]: Non-Toxic
- Activity [7]: Toxic

Structure (SMILES): C[C@H](CCC(F)(F)C(C)(C)O)[C@H]1CC[C@H]2/C(=C/Cn3nnc(-c4ccc(F)cc4)n3)CCC[C@]12C
- Activity [1]: Not Active
- Activity [5]: Non-Toxic

Structure (SMILES): C=C1CC[C@H](O)C/C1=C/C=C1\CCC[C@]2(C)[C@@H]([C@H](C)CCCC(C)(C)O)CC[C@@H]12 [CALCIFEDIOL ANHYDROUS]
- Activity [2]: Toxic
- IC50 [8]: 1180 nM
- inhibition [9]: Active
- Activity [6]: Toxic

Structure (SMILES): C[C@H](CCCC(C)(C)O)[C@H]1CC[C@H]2/C(=C/Cn3cnnn3)CCC[C@]12C
- Activity [1]: Active
